Laboratory results published in US8735345B2, “Therapeutic composition” (Hoffmann la Roche Inc., priority 2009, dated 2014).

Legend:
[1] = tested on: HCV replication; conditions: cited from earlier work
[2] = tested on: genotype 1 HCV; assay: HCV RNA viral load determination (COBAS AmpliPrep/COBAS TaqMan HCV Test) in a randomized, double-blind, placebo controlled, dose ranging study; assay type: in vivo, human; conditions: monotherapy 750 mg, bid; after 7 days of treatment
Experimental: A randomized, double-blind, placebo controlled, dose ranging study of Compound 1a and Compound 2 in adult patients with chronic hepatitis C genotype 1 was conducted. Approximately 54 treatment naïve males and females between 18 and 65 years of age (inclusive) with genotype 1 HCV infection who had not previously been treated with an interferon or investigational HCV therapeutic agent were enrolled. Approximately an additional 20 treatment patients who had failed treatment with the current standard of care (null, partial responders and relapsers) were enrolled. […] Subjects with liver cirrhosis or incomplete/transition to cirrhosis, or other forms of liver disease, anemia, HIV or HBV infection, hepatocellular carcinoma, cardiac disease or renal disease were excluded from this particular protocol, as well as pregnant or lactating women, women of childbearing potential, and male partners of women who are pregnant or lactating.
Seven groups, Groups I, II, III, IV, V, VI and VII, of subjects were studied. Blood samples were collected at time points to determine pharmacokinetics parameters, including Tmax, Cmax, Kel, T1/2, AUC, CL/F, Vd/F and accumulation ratio.
The specifics of Groups I, II, III, IV, V, VI and VII are shown in Table 1 below and pictorially in FIGS. 2 and 3. Group I included two arms with 8 subjects in Arm 1 and 8 subjects in Arm 2. […]

Compound	inhibition of HCV replication [1]	mean log change from baseline in HCV RNA viral load [2]
C[C@@]1(F)[C@H](O)[C@@H](CO)O[C@H]1n1ccc(N)nc1=O [Compound 1, β-D-2′-deoxy-2′-fluoro-2′-C-methylcytidine]	effective in inhibiting HCV replication	
CC(C)(C)OC(=O)N[C@H]1CCCCCC=C[C@@H]2C[C@@]2(C(=O)NS(=O)(=O)C2CC2)NC(=O)[C@@H]2C[C@@H](OC(=O)N3Cc4cccc(F)c4C3)CN2C1=O [Compound 2, (1S,4R,6S,14S,18R)-4-Fluoro-1,3-dihydro-isoindole-2-carboxylic acid 14-tert-butoxycarbonylamino-4-cyclopropanesulfonylaminocarbonyl-2,15-dioxo-3,16-diaza-tricyclo[14.3.0.04,6]nonadec-7-en-18-yl ester]	effective in inhibiting HCV replication	
diisobutyl ester prodrug of β-D-2′-deoxy-2′-fluoro-2′-C-methylcytidine [Compound 1a]		−1.3 log IU/mL
